Source: patent US11912667B2, “Morphic forms of hexadecyloxypropyl-phosphonate esters and methods of synthesis thereof” (EMERGENT BIODEFENSE OPERATIONS LANSING LLC, priority 2013, dated 2024)
“And” between values parts separate entries of the source, which are not always exact repeats. Identical values can stand only once. Blank lines part the entries; values can stand above or below the compound they belong to.

What was measured:
Type in all cases: physicochemical
[1] = Stable form screening slurries and interconversion studies; conditions: for Form recovered from slurries: seeded with Form I, about two weeks
Experimental: In order to aid in the design of solid form screening experiments, solubility estimates were completed in various solvent systems using Form II at ambient and elevated temperature. […] Slurries were set up in a variety of solvent systems to determine the stable form and the potential of Compound 1 to form stable solvates. The slurries were prepared using Form II and each was seeded with Form I. Each of the slurries was stirred for about two weeks and most of the slurries were run at room temperature although a few were run at sub-ambient and elevated temperatures (˜45° C.). […] A few samples did show a minor amount of Form I in Form II likely due to poor conversion kinetics due to limited solubility. […] Interconversion studies starting with a mixture of Form I and Form II were also run in methanol at room temperature and ˜45° C.

[2] = Estimated solubility by aliquot addition of solvent, visual inspection; conditions: for solubility: thermodynamic from solid
Experimental: The present disclosure provides morphic Form II with low solubility in methanol. The solubility may be estimated based on the total volume of solvent needed to provide complete dissolution. The actual solubility may be greater than the value calculated due to the incremental addition of solvent and kinetics of dissolution of the material. […] Solubility Determination: Aliquots of test solvents or solvent mixtures were added to weighed samples of Compound 1. Samples were sonicated as needed between additions to facilitate dissolution. Complete dissolution of the test material in each solvent was determined by visual inspection. The solubility was estimated based on the total volume of solvent needed to provide complete dissolution. The actual solubility may be greater than the value calculated due to the incremental addition of solvent and kinetics of dissolution of the material. […] See Table 2 and discussion under “Solubility” section in the “Detailed Description” of the present disclosure.

[3] = Relative humidity (RH) stressing of Form II
Excerpt: In some embodiments, a composition comprising morphic Form II of the present disclosure converts to a hydrate Form (e.g., Form H) if stored under relative humidity (RH) of 40% or more. In some embodiments, a composition comprising morphic Form II of the present disclosure partially converts to morphic Form H if stored under relative humidity of equal to or more than 40% for several days. […] A complete conversion of a composition comprising the morphic Form II of the present disclosure occurs at about equal to or more than 80% RH, about equal to or more than 81% RH, about equal to or more than 82% RH, about equal to or more than 83% RH, about equal to or more than 84% RH, about equal to or more than 85% RH, about equal to or more than 86% RH, about equal to or more than 87% RH, about equal to or more than 88% RH, about equal to or more than 89% RH over between 5-20 days (e.g., 5 days, 6 days, 7 days, 8 days, 9 days, 10 days, 11 days, 12 days, 13 days, 14 days, 15 days, 16 days, 17 days, 18 days, 19 days, 20 days).
The present disclosure provides that exposure of Form II to higher humidity is sufficient for conversion to the hydrate form.

[4] = Weight increase upon increasing relative humidity; conditions: upon increasing relative humidity from 5.0% to 95.0%
Excerpt: In another embodiment of the invention, provided herein is Form II characterized as a solid form of Compound 1, such that the solid form undergoes a weight increase of less than 1.5% upon increasing relative humidity from 5.0% to 95.0%.

[5] = Slurry conversion of Form II to Form H in methanol:water, seeded with Form H; conditions: for Results (form recovered from slurry): stirred 7-9 days
Experimental: The present disclosure provides that an anhydrous form (e.g. Form II) is produced without forming a hydrate form (e.g., Form H) during the crystallization process, by determining the critical water concentration below which the anhydrous form is the stable form. The critical water concentration is determined by varying the methanol-water concentrations in the slurries.
In another embodiment, at concentrations of 97:3 methanol:water and greater, Form H was recovered from the slurries. These embodiments provide that the critical water concentration for forming Form II is between 1 and 3% water. In some embodiments, water in the initial methanol solvent is not accounted for, which results in slightly higher final water concentration than 1 and 3%. In additional embodiments, experiments, by varying the methanol-water concentrations in the slurries, is carried out at room temperature or at about 45° C. In one embodiment, the critical water concentration is less than 5% at room temperature and less than 10% at about 45° C. Mixtures of Form II and Form H are observed to convert to either Form II or Form H in methanol depending on the exact water content. The present disclosure provides that during crystallization of Form II, critical water activity remains very low up to about 45° C. and that water content in the final methanol recrystallization is a critical process parameter to control to avoid operating in conditions which favors formation of Form H.

[6] = Particle size analysis (PSA), Malvern Mastersizer 2000
Excerpt: Particle size data was acquired using a Malvern Instruments Mastersizer 2000 equipped with a Hydro2000 μP dispersion unit. Data was collected and analyzed using Mastersizer 2000 software (v. 5.60) using volume based measurements. NIST-traceable glass beads were used to qualify the instrument.

[7] = Methanol solubility and metastable zone (MSZ), Crystal16; conditions: for Cloud Point 2: 0.03 C./min cooling rate; for Cloud Point 1: 0.5° C./min cooling rate
Experimental: MSZW is a nucleation kinetic-limited parameter that is highly dependent on process condition. Many factors may influence the value of MSZW, e.g., rate of cooling, agitation, the presence of foreign particles and impurities. MSZW decreases as stirrer speed increases; MSZW widens at N>400 rpm; and MSZW widens as cooling rate rises. In one embodiment, large differences in the metastable zone are observed for both Form II and Form I between the rapid cooling rate of about 0.5° C./min and a very slow cooling rate of about 0.03° C./min. In another embodiment, narrow metastable cooling rates are observed at higher concentrations (e.g., about 100 mg/mL).

[8] = crystallized from methanol ~10 vols, seed ~0.5% Form II at ~58° C.
[9] = crystallized from methanol ~10 vols, seed ~3% Form II
[10] = 10% of total volume of particles no larger than the indicated size
[11] = 50% of total volume of particles no larger than the indicated size
[12] = 90% of total volume of particles no larger than the indicated size

Form recovered from slurries ([1]; anhydrous solvent systems, mostly room temperature): Form II was recovered | Form recovered from slurries ([1]; aqueous solvent systems): converted to the hydrated form, Form H | Solids recovered from interconversion studies ([1]; starting with a mixture of Form I and Form II, methanol, room temperature and ~45° C.): consistent with Form II | Solubility in various solvent systems ([2]; ambient and elevated temperature, each of the solvents tested): poor solubility | solubility ([2]; aqueous with cosolvent or surfactant or cyclodextrin, Methanol:Water 1:1, RT, estimated): < 3000 µg/mL | solubility ([2]; aqueous with cosolvent or surfactant or cyclodextrin, Methanol:Water 1:1, ~63 °C, estimated): < 14000 µg/mL | solubility ([2]; organic solvent or mixture, Trifluoroethanol, estimate): > 5000 µg/mL | Conversion to hydrate form on RH exposure ([3]; about 43% RH for about 12 days): partially converts to a hydrate form | Conversion from Form II to Form H on RH exposure ([3]; about 43 to about 85% RH for about 12 days): minor conversion from Form II to Form H | Conversion from Form II to Form H on RH exposure ([3]; about 85% RH): complete conversion of Form II to Form H | weight increase [4]: less than 1.5% | Results (form recovered from slurry) ([5]; Methanol:water (80:20), ~44-45 °C): Form H | Results (form recovered from slurry) ([5]; Methanol:water (85:15), ~44-45 °C): Form H | Results (form recovered from slurry) ([5]; Methanol:water (90:10), RT): Form H | Results (form recovered from slurry) ([5]; Methanol:water (90:10), ~44-45 °C): Form H | Results (form recovered from slurry) ([5]; Methanol:water (93:7), RT): Form H | Results (form recovered from slurry) ([5]; Methanol:water (93:7), ~2-8 °C): Form H | Results (form recovered from slurry) ([5]; Methanol:water (95:5), RT): Form H | Results (form recovered from slurry) ([5]; Methanol:water (95:5), ~2-8 °C): Form H | Results (form recovered from slurry) ([5]; Methanol:water (95:5), ~44-45 °C): Form II + | Results (form recovered from slurry) ([5]; Methanol:water (97:3), RT): Form II + | Results (form recovered from slurry) ([5]; Methanol:water (97:3), ~2-8 °C): Form H | Results (form recovered from slurry) ([5]; Methanol:water (99:1), ~2-8 °C): Form II | critical water concentration ([5]; about 45° C. slurries in methanol:water): less than 10% | critical water concentration ([5]; room temperature slurries in methanol:water): less than 5% | particle size distribution, volume weighted mean ([6]; FIG. 5): 25.663 | d10 [6, 8]: d10 = 17.8 μm | d50 [6, 8]: 69.6 μm; | d90 [6, 8]: d90 = 160.9 μm | d10 [6, 9]: d10 = 9.8 μm | d50 [6, 9]: 34.4 μm; | d90 [6, 9]: d90 = 101.7 μm | Solubility in methanol compared to Form I [7]: Lower solubility | Clear Point ([7]; 20.3 mg/mL): 53.6 °C | Cloud Point 2 ([7]; 20.3 mg/mL): 38.2 °C | Cloud Point 1 ([7]; 20.3 mg/mL): 37.6 °C | Clear Point ([7]; 29.4 mg/mL): 56.2 °C | Cloud Point 2 ([7]; 29.4 mg/mL): 44.6 °C | Cloud Point 1 ([7]; 29.4 mg/mL): 45.1 °C | Clear Point ([7]; 38.9 mg/mL): 58.1 °C | Cloud Point 2 ([7]; 38.9 mg/mL): 51.1 °C | Cloud Point 1 ([7]; 38.9 mg/mL): 45.1 °C | Clear Point ([7]; 50.5 mg/mL): 60.2 °C | Cloud Point 2 ([7]; 50.5 mg/mL): 56.6 °C | Cloud Point 1 ([7]; 50.5 mg/mL): 51.0 °C | Clear Point ([7]; 64.3 mg/mL): 60.5 °C | Cloud Point 2 ([7]; 64.3 mg/mL): 58.8 °C | Cloud Point 1 ([7]; 64.3 mg/mL): 48.5 °C | Clear Point ([7]; 80.4 mg/mL): 61.2 °C | Cloud Point 2 ([7]; 80.4 mg/mL): 57.9 °C | Cloud Point 1 ([7]; 80.4 mg/mL): 49.7 °C | Clear Point ([7]; 95.6 mg/mL): 61.9 °C | Cloud Point 2 ([7]; 95.6 mg/mL): 59.9 °C | Cloud Point 1 ([7]; 95.6 mg/mL): 58.1 °C | Clear Point ([7]; 166.6 mg/mL): 63.1 °C | Cloud Point 2 ([7]; 166.6 mg/mL): 61.1 °C | Cloud Point 1 ([7]; 166.6 mg/mL): 58.1 °C
Compound: CCCCCCCCCCCCCCCCOCCCOP(=O)(O)CO[C@H](CO)Cn1ccc(N)nc1=O [Form II, phosphonic acid, [[(S)-2-(4-amino-2-oxo-1(2H)-pyrimidinyl)-1-(hydroxymethyl)ethoxy]methyl]mono[3-(hexadecyloxy)propyl] ester]

d10 [6, 10]: 17.410 μm | d50 [6, 11]: 85.440 μm | d90 [6, 12]: 199.029 μm
Compound: CCCCCCCCCCCCCCCCOCCCOP(=O)(O)CO[C@H](CO)Cn1ccc(N)nc1=O [Sample 4]

d10 [6, 10]: 19.896 μm | d50 [6, 11]: 101.748 μm and 101.745 μm
Compound: CCCCCCCCCCCCCCCCOCCCOP(=O)(O)CO[C@H](CO)Cn1ccc(N)nc1=O [Sample 3]

d10 [6, 10]: 19.297 μm | d50 [6, 11]: 81.603 μm | d90 [6, 12]: 168.698 μm
Compound: CCCCCCCCCCCCCCCCOCCCOP(=O)(O)CO[C@H](CO)Cn1ccc(N)nc1=O [Sample 1]
